Experimental data taken from patent publication US20240216369A1, “THE USE OF A SPLICING MODULATOR FOR A TREATMENT SLOWING PROGRESSION OF HUNTINGTON'S DISEASE” (Novartis AG, priority 2019, published 2024).
pEC50: −log10 of the molar value.

Key:
HTT transcript = assay: In vitro evaluation in SH-SY5Y cells: HTT transcript by quantitative PCR; type: cell-based, human; settings: 24 hours
Method: Cultured human neuroblastoma (SH-SY5Y cell line) cells were treated at doses ranging from 5 nM-125 nM for 24 hours (for transcript evaluation) or 48 hours (for protein evaluation). RNA was quantified by Nanodrop 2000 (Thermo Scientific). cDNAs were synthesized from 140-400 ng RNA using Maxima First strand cDNA synthesis kit using a mix of oligo dT and random hexamers (Thermo Scientific) in 20 uL reaction at 25° C. for 10 min, 50° C. for 15 min then 85° C. for 5 min. Quantitative PCR was performed using Taqman Fast Advanced master mix (Thermo Scientific) in 20 uL with 4 uL of cDNA reaction and primers specific for each genes. The PCR steps were as follows: 95° C. for 20 sec then 40 cycles of 95° C. for 1 sec, 55° C. for 20 sec. The sequence of primers were, for WT human HTT, forward, 5′-[…]-3′ (SEQ ID NO: 1); reverse, 5′-[…]-3′ (SEQ ID NO: 2) and sequence of probe was 56-FAM/TTG TGA AAT/ZEN/TCG TGG TGG CAA CCC/3IABKFQ/(SEQ ID NO: 8), for HTT novel exon, forward, 5′-[…]-3′ (SEQ ID NO: 3); reverse, 5′-[…]-3′ (SEQ ID NO: 4) and sequence of probe/56-FAM/AAT TCG TGG/ZEN/TGG CAA CCC TTG AGA/3IABKFQ/(SEQ ID NO: 7). Relative quantification of gene expression was performed using 2-AACT method. Fold changes in the mRNA expression level was calculated following normalization to […] glucuronidase beta (Gusb) as an endogenous reference (FIGS. 2a and 2b).

mHTT = assay: Mutant and total HTT multiplex HTRF assay in Q48 HTT human embryonic stem cell line: mHTT; type: cell-based; settings: Q48 HTT hESC, 48 hours
Procedure, shortened: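 Q48 HTT hESCs from HD donors were treated with compound for 48 h at 37 °C after 24 h adherence, then lysed. Lysates were read by multiplex HTRF with N-terminal donor, polyQ (MW1) and post-polyQ (MAB2166) antibodies for 4-6 h at RT. Donor/acceptor ratios give relative mHTT and tHTT; pIC50 reported.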

[1] = First-in-human proof of concept study of oral branaplam in infants with Type 1 SMA: PK and safety; type: in vivo
Source text: • Principle set-up of a pediatric ACAT/PBPK model in GastroPlus™ software including physico-chemical parameters, physiological parameters, and formulation factors. The ACAT model was linked to a full PBPK model in which tissue-to-plasma concentration ratios were estimated via in silico method provided by GastroPlus™ software. • Estimation of the clearance (CL) using plasma concentrations of branaplam from an open-label multi-part first-in-human proof of concept study of oral branaplam, Part 1 only. […] The branaplam doses were escalated in subsequent cohorts until MTD was determined or when PK results confirmed that the MTD could not be reached due to a potential pharmacokinetic exposure plateau at higher doses. […]
The aim of part one of this study was to determine the safety and tolerability of ascending weekly doses and to estimate the maximum tolerated dose (MTD) of oral/enteral branaplam (see Example 3) in infants with Type 1 SMA. All patients had exactly 2 copies of the SMN2 gene, as determined e.g. by quantitative real time PCR or droplet digital PCR.
Patients were dosed once weekly with branaplam. The branaplam doses were escalated in subsequent cohorts until MTD was determined or when PK results confirmed that the MTD could not be reached due to a potential pharmacokinetic exposure plateau at higher doses. […]

Structure (SMILES): CC1(C)CC(Oc2ccc(-c3ccc(-c4cn[nH]c4)cc3O)nn2)CC(C)(C)N1 [Compound 18, 5-(1H-pyrazol-4-yl)-2-(6-((2,2,6,6-tetramethylpiperidin-4-yl)oxy)pyridazin-3-yl)phenol]
- increase in novel-exon-containing HTT transcript (HTT transcript; 5 nM-125 nM): 100-500 fold
- lowering of total Huntingtin transcript (HTT transcript; 5 nM-125 nM): 30-90 % of normal endogenous levels
- pEC50 (HTT transcript; Homo sapiens, read-out: EC50 for lowering of HTT transcript): 7.60 to 7.70
- Rating (based on mHTT potency) (mHTT): **** (a pIC50 value between 7.0 and 7.5 is indicated by four stars (****))
- mHTT pIC50 (mHTT): 7.2795
- Tmax ([1]; human, plasma, Type 1 SMA patients, oral, nominal dose range 6 to 60 mg/m^2, read-out: median time of maximum concentration (Tmax) in plasma): 2.97 to 4 h
- dose-limiting toxicity ([1]; infants with Type 1 SMA, once weekly 6 to 60 mg/m^2, exposure 4-33 months): No dose-limiting toxicity was observed
